Measured values reported in ChEMBL document CHEMBL1201862, “PubChem BioAssay data set” (2004).
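Interpolation was linear, between the two tested concentrations surrounding the appropriate level; five concentrations were tested over 48 hours in 96-well plates. GI50 marks 50% less growth.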 Active and inactive are the calls of the source. Cut-off read from the data, not from the text of the source: active = GI50 up to about 1.1 µM and inactive = higher.

Columns and labels:
Test in all cases: inhibition of tumour cell growth, NCI panel, 48 h
786-0 = tested on: 786-0
ACHN = tested on: ACHN
COLO 205 = tested on: COLO 205
EKVX = tested on: EKVX
HCC 2998 = tested on: HCC 2998
HT-29 = tested on: HT-29
IGROV-1 = tested on: IGROV-1
OVCAR-4 = tested on: OVCAR-4
OVCAR-8 = tested on: OVCAR-8
RPMI-8226 = tested on: RPMI-8226
SF-268 = tested on: SF-268
SF-539 = tested on: SF-539
SK-MEL-28 = tested on: SK-MEL-28
SK-MEL-2 = tested on: SK-MEL-2
SN12C = tested on: SN12C
SR = tested on: SR
U-251 = tested on: U-251
A549 = tested on: A549
OVCAR-3 = tested on: OVCAR-3

Row | SMILES | GI50 (786-0) | GI50 (ACHN) | GI50 (COLO 205) | GI50 (EKVX) | GI50 (HCC 2998) | GI50 (HT-29) | GI50 (IGROV-1) | GI50 (OVCAR-4) | GI50 (OVCAR-8) | GI50 (RPMI-8226) | GI50 (SF-268) | GI50 (SF-539) | GI50 (SK-MEL-28) | GI50 (SK-MEL-2) | GI50 (SN12C) | GI50 (SR) | GI50 (U-251) | GI50 (A549) | GI50 (OVCAR-3)
1 | O=C(/C(=C\c1ccc(Cl)cc1)c1ccccc1)c1ccccc1 | 79.8 µM (inactive) | 38.8 µM (inactive) | > 100 µM (inactive) | 39.3 µM (inactive) | 40.5 µM (inactive) | 43.8 µM (inactive) | > 100 µM (inactive) | 26.3 µM (inactive) | > 100 µM (inactive) | 38.2 µM (inactive) | > 100 µM (inactive) | > 100 µM (inactive) | > 100 µM (inactive) | 11.7 µM (inactive) | > 100 µM (inactive) | 40.8 µM (inactive) | 65.5 µM (inactive) |  | 
2 | COc1c(C)cc2c(c1O)C1C3[C@H]4SC[C@@]5(NCCC6=C5NC5C=CC=CC65)C(=O)OCC(c5c6c(c(C)c(OC(C)=O)c54)OCO6)N3[C@@H](O)C(C2)N1C (stereo partly drawn) | < 0.01 µM (active) | < 0.01 µM (active) | < 0.01 µM (active) | 0.0297 µM (active) | < 0.01 µM (active) | < 0.01 µM (active) | < 0.01 µM (active) |  | < 0.01 µM (active) | < 0.01 µM (active) | < 0.01 µM (active) | < 0.01 µM (active) | 0.0134 µM (active) | < 0.01 µM (active) | < 0.01 µM (active) | < 0.01 µM (active) | < 0.01 µM (active) | < 0.01 µM (active) | < 0.01 µM (active)
3 | NC1=NS(=O)(=O)Nc2nc(-c3ccc([N+](=O)[O-])cc3)[nH]c21 | > 100 µM (inactive) | > 100 µM (inactive) | > 100 µM (inactive) |  | > 100 µM (inactive) | > 100 µM (inactive) | > 100 µM (inactive) | > 100 µM (inactive) | > 100 µM (inactive) | > 100 µM (inactive) | > 100 µM (inactive) | > 100 µM (inactive) | > 100 µM (inactive) | > 100 µM (inactive) | > 100 µM (inactive) | > 100 µM (inactive) | > 100 µM (inactive) | > 100 µM (inactive) | > 100 µM (inactive)
4 | NC(CSSCC(N)Cc1ccccc1)Cc1ccccc1 (stereo not drawn) | 32.9 µM (inactive) | 76.4 µM (inactive) | 32.7 µM (inactive) | 47.5 µM (inactive) | > 100 µM (inactive) | 44 µM (inactive) | > 100 µM (inactive) | 70.8 µM (inactive) | 51.3 µM (inactive) | 35.3 µM (inactive) | 49.4 µM (inactive) |  | 43.4 µM (inactive) | 36.8 µM (inactive) | 37.9 µM (inactive) | 31 µM (inactive) | 84.1 µM (inactive) | 65.8 µM (inactive) | 33 µM (inactive)
5 | Cc1cc(Br)cc(C)c1NC(=O)C(=O)C(C(=O)c1ccncc1)C1OC(=O)c2ccccc21 (stereo not drawn) | > 100 µM (inactive) | > 100 µM (inactive) | > 100 µM (inactive) | > 100 µM (inactive) | > 100 µM (inactive) |  | > 100 µM (inactive) | > 100 µM (inactive) | > 100 µM (inactive) | > 100 µM (inactive) | > 100 µM (inactive) |  |  |  | > 100 µM (inactive) | > 100 µM (inactive) | > 100 µM (inactive) | > 100 µM (inactive) | > 100 µM (inactive)
6 | CCCCCCC(=O)OC[n+]1ccc2c(C)c3[nH]c4ccccc4c3c(C)c2c1 | 0.418 µM (active) | 0.703 µM (active) |  | 0.403 µM (active) | 0.826 µM (active) | 0.347 µM (active) | 1.47 µM (inactive) | 1.06 µM (active) | 0.34 µM (active) | 0.0785 µM (active) | 0.61 µM (active) | 0.646 µM (active) | 1.56 µM (inactive) | 5.38 µM (inactive) | 0.404 µM (active) | 0.101 µM (active) | 0.552 µM (active) | 0.474 µM (active) | 1.21 µM (inactive)
7 | Cc1cn(C2CC(N(O)Cc3ccccc3)C(CO)O2)c(=O)[nH]c1=O (stereo not drawn) | 5.24 µM (inactive) | > 100 µM (inactive) | > 100 µM (inactive) | > 100 µM (inactive) | > 100 µM (inactive) | > 100 µM (inactive) | > 100 µM (inactive) | > 100 µM (inactive) | > 100 µM (inactive) | > 100 µM (inactive) | > 100 µM (inactive) | > 100 µM (inactive) | > 100 µM (inactive) |  | > 100 µM (inactive) | > 100 µM (inactive) | > 100 µM (inactive) | > 100 µM (inactive) | > 100 µM (inactive)
8 | CC(=O)Oc1ccc(O)c(O)c1C/C=C(\C)CC/C=C(\C)CC/C=C(\C)CCC=C(C)C [TETRAPRENYLPHENOLSUILLIN] | 1.1 µM (active) | 0.275 µM (active) | 0.157 µM (active) | 1.55 µM (inactive) | 0.871 µM (active) | 0.338 µM (active) |  | 0.426 µM (active) | 0.392 µM (active) |  | 0.446 µM (active) | 0.407 µM (active) | 0.656 µM (active) | 1.16 µM (inactive) | 0.272 µM (active) | 0.0564 µM (active) | 0.346 µM (active) | 0.34 µM (active) | 
